Experimental data: patent publication US7671068B2, “N-(alkoxyalkyl) carbamoyl-substituted 6-phenyl-benzonaphthyridine derivatives and their use as PDE ¾ inhibitors” (NYCOMED GmbH, priority 2004, dated 2010)

What was measured:
Format in all cases: biochemical
[1] = target: T1, PDE4B2 (Homo sapiens, UniProt Q07343); assay: PDE4B2 inhibition, Method B (modified SPA test, recombinant enzyme); conditions: 0.5 μM cAMP, read-out: PDE4 [−log IC50, mol/l] (converted)
T1 construct: made in house; host or cells: baculovirus, SF21 insect cells (virus made in SF9); 1000xg supernatant of the homogenate
Experimental: The PDE4B2 (GB no. M97515) was a gift of Prof. M. Conti (Stanford University, USA). It was amplified from the original plasmid (pCMV5) via PCR with primers Rb9 (5′-[…]-3′) and Rb10 (5′-[…]-3′) and cloned into the pCR-Bac vector (Invitrogen, Groningen, NL).
(§1) The recombinant baculovirus was prepared by means of homologous recombination in SF9 insect cells. The expression plasmids were cotransfected with Bac-N-Blue (Invitrogen, Groningen, NL) or Baculo-Gold DNA (Pharmingen, Hamburg) using a standard protocol (Pharmingen, Hamburg). Wt virus-free recombinant virus supernatants were selected using plaque assay methods. After that, high-titre virus supernatants were prepared by amplifying 3 times. PDEs were expressed in SF21 cells by infecting 2×10^6 cells/ml with an MOI (multiplicity of infection) between 1 and 10 in serum-free SF900 medium (Life Technologies, Paisley, UK). The cells were cultured at 28° C. for 48-72 hours, after which they were pelleted for 5-10 min at 1000 g and 4° C.
(§2) The SF21 insect cells were resuspended, at a concentration of approx. 10^7 cells/ml, in ice-cold (4° C.) homogenization buffer (20 mM Tris, pH 8.2, containing the following additions: 140 mM NaCl, 3.8 mM KCl, 1 mM EGTA, 1 mM MgCl2, 10 mM β-mercaptoethanol, 2 mM benzamidine, 0.4 mM Pefablock, 10 μM leupeptin, 10 μM pepstatin A, 5 μM trypsin inhibitor) and disrupted by ultrasonication. The homogenate was then centrifuged for 10 min at 1000×g and the supernatant was stored at −80° C. until subsequent use (see below). The protein content was determined by the Bradford method (BioRad, Munich) using BSA as the standard.
PDE3A1 and PDE4B2 activities were inhibited by the said compounds in a modified SPA (scintillation proximity assay) test, supplied by Amersham Biosciences (see procedural instructions “phosphodiesterase [3H]cAMP SPA enzyme assay, code TRKQ 7090”), carried out in 96-well microtitre plates (MTP's). The test volume is 100 μl and contains 20 mM Tris buffer (pH 7.4), 0.1 mg of BSA (bovine serum albumin)/ml, 5 mM Mg^2+, 0.5 μM cAMP (including about 50,000 cpm of [3H]cAMP), 1 μl of the respective substance dilution in DMSO and sufficient recombinant PDE (1000×g supernatant, see above) to ensure that 10-20% of the cAMP is converted under the said experimental conditions. […] After a preincubation of 5 min at 37° C., the reaction is started by adding the substrate (cAMP) and the assays are incubated for a further 15 min; after that, they are stopped by adding SPA beads (50 μl). In accordance with the manufacturer's instructions, the SPA beads had previously been resuspended in water, but were then diluted 1:3 (v/v) in water; the diluted solution also contains 3 mM IBMX to ensure a complete PDE activity stop. After the beads have been sedimented (>30 min), the MTP's are analyzed in commercially available luminescence detection devices. The corresponding IC50 values of the compounds for the inhibition of PDE activities are determined from the concentration-effect curves by means of non-linear regression.
(§3) The inhibitory values of the compounds 1-16 and 22-24 have been determined according to Method A. The inhibitory values of the compounds 17-21 have been determined according to Method B.

[2] = target: T2, PDE3A1 (Homo sapiens, UniProt Q14432); assay: PDE3A1 inhibition, Method B (modified SPA test, recombinant enzyme); conditions: 0.5 μM cAMP, read-out: PDE3 [−log IC50, mol/l] (converted)
T2 construct: The whole ORF was subcloned into pBacPak9 (Clontech, Palo Alto) using EcoRI; made in house; host or cells: baculovirus (pBacPak9), SF21 insect cells (virus made in SF9); 1000xg supernatant of the homogenate
Source text: The cDNA for PDE3A1 (GB no. U36798) was isolated in 2 steps using PCR. A 3′ terminal cDNA fragment of PDE3A1 was amplified from fat cells cDNA (Clontech, Palo Alto) using primers OZ 458 (5′-[…]-3′) and OZ 457 (5′-[…]-3′). The 5′ terminal cDNA fragment of PDE3A1 was amplified from Placenta cDNA (Clontech, Palo Alto) using primers OZ 455 (5′-[…]-3′) and OZ 456 (5′-[…]-3′). The PCR products were cloned into pCR2.1-Topo (Invitrogen, Groningen, NL) under standard conditions (the manufacturer's instructions). The 3′ fragment was cut out with HindII and cloned into the HindII site of the construct carrying the 5′ fragment. The whole ORF was subcloned into pBacPak9 (Clontech, Palo Alto) using EcoRI. Aminoacid 12 is Aspartic Acid like in sequence GB no. AJ005036, aa 69 and aa 110 are respective Serine and Glycine like in both sequences GB no. AJ005036 and GB no. M91667.
as §1, §2
PDE3A1 and PDE4B2 activities were inhibited by the said compounds in a modified SPA (scintillation proximity assay) test, supplied by Amersham Biosciences (see procedural instructions “phosphodiesterase [3H]cAMP SPA enzyme assay, code TRKQ 7090”), carried out in 96-well microtitre plates (MTP's). The test volume is 100 μl and contains 20 mM Tris buffer (pH 7.4), 0.1 mg of BSA (bovine serum albumin)/ml, 5 mM Mg^2+, 0.5 μM cAMP (including about 50,000 cpm of [3H]cAMP), 1 μl of the respective substance dilution in DMSO and sufficient recombinant PDE (1000×g supernatant, see above) to ensure that 10-20% of the cAMP is converted under the said experimental conditions. […] After the beads have been sedimented (>30 min), the MTP's are analyzed in commercially available luminescence detection devices. The corresponding IC50 values of the compounds for the inhibition of PDE activities are determined from the concentration-effect curves by means of non-linear regression.
as §3

[3] = target: T3, PDE3 (cGMP-inhibited) in homogenates of human platelets (Homo sapiens, UniProt Q14432); assay: PDE3 inhibition, Method A (radioactive PDE assay after Thompson et al.); conditions: read-out: PDE3 [−log IC50, mol/l] (converted)
T3 construct: investigated in homogenates of human platelets; from tissue; host or cells: homogenates of human platelets
Experimental: (§4) The PDE activity was determined according to Thompson et al. (Adv Cycl Nucl Res 10: 69-92, 1979) with some modifications (Bauer and Schwabe, Naunyn-Schmiedeberg's Arch Pharmacol 311: 193-198, 1980). The test samples contained 20 mM Tris (pH 7.4), 5 mM MgCl2, 0.5 μM CAMP or cGMP, [^3H]cAMP or [^3H]cGMP (about 30 000 cpm/sample), the PDE isoenzyme-specific additives described in greater detail below, the indicated concentrations of inhibitor and an aliquot of the enzyme solution in a total sample volume of 200 μl. Dilution series of the compounds according to the invention were prepared in DMSO and further diluted in the samples [1:100 (v/v)], to give the desired end concentration of the inhibitors at a DMSO concentration of 1% (v/v), which for its part has only a minute effect on PDE activity.
(§5) After preincubation at 37° C. for 5 minutes, the reaction was started by addition of the substrate (CAMP or cGMP). The samples were incubated at 37° C. for a further 15 min. The reaction was terminated by addition of 50 μl 0.2 N HCl. After cooling on ice for 10 minutes and addition of 25 μg 5′-nucleotidase (snake venom from Crotalus atrox), the mixture was again incubated at 37° C. for 10 min and the samples were then applied to QAE Sephadex A-25 columns (sample volume 1 ml). The columns were eluted with 2 ml of 30 mM ammonium formate (pH 6.0). The radioactivity of the eluate was measured and corrected by the corresponding blank values (measured in the presence of denatured protein); the blank values were less than 5% of the total radioactivity. In no case did the proportion of hydrolyzed nucleotide exceed 30% of the original substrate concentration.
PDE3 (cGMP-inhibited) was investigated in homogenates of human platelets (see Schudt et al., Biochem Pharmacol 1991: 42, 153-162) using CAMP or cGMP as substrate.
(§6) The IC50 values were determined from the concentration-inhibition curves by nonlinear regression.
as §3

[4] = test system: PDE4 (cAMP-specific) in the cytosol of human polymorphonuclear leukocytes (PMNL); assay: PDE4 inhibition, Method A (radioactive PDE assay after Thompson et al.); conditions: cAMP substrate, motapizone 1 μM
Experimental: as §4, §5
PDE4 (cAMP-specific) was investigated in the cytosol of human polymorphonuclear leukocytes (PMNL) [isolated from leukocyte concentrates, see Schudt et al., Arch Pharmacol 1991: 344, 682-690] using cAMP as substrate. The PDE3 inhibitor motapizone (1 μM) was used to suppress the PDE3 activity emanating from contaminated platelets.
as §6, §3

T2 sequence (Q14432 whole entry): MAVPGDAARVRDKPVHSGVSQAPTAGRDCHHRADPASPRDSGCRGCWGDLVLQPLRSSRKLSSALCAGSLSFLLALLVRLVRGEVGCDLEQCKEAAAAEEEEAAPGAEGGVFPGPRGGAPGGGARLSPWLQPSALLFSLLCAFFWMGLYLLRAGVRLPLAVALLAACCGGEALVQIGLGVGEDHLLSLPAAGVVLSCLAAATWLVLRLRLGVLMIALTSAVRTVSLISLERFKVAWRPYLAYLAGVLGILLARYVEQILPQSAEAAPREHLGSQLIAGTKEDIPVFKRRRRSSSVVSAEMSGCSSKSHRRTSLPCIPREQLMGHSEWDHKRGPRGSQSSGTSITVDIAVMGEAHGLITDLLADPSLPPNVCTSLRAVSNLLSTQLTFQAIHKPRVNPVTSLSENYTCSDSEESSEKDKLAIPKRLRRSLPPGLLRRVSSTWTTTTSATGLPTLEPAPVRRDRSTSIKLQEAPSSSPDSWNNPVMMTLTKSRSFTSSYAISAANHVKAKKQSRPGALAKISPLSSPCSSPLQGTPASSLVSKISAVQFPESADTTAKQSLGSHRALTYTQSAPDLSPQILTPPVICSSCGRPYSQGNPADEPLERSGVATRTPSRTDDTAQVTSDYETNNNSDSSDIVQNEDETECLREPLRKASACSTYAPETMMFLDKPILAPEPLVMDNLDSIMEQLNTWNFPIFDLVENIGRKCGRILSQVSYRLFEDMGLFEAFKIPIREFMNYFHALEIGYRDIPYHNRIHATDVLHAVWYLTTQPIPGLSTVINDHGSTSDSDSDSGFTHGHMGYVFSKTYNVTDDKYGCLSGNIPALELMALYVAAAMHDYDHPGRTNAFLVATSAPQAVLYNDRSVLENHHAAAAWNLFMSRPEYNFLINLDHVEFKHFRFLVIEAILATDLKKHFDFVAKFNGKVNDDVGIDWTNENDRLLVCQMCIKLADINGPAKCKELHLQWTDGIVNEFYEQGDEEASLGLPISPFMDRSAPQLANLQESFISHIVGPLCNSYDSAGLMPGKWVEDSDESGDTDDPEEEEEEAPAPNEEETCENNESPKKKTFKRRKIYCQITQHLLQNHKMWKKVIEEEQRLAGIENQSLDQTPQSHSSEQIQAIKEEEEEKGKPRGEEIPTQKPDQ
T1 sequence (Q07343 1-564 isoform Q07343-2): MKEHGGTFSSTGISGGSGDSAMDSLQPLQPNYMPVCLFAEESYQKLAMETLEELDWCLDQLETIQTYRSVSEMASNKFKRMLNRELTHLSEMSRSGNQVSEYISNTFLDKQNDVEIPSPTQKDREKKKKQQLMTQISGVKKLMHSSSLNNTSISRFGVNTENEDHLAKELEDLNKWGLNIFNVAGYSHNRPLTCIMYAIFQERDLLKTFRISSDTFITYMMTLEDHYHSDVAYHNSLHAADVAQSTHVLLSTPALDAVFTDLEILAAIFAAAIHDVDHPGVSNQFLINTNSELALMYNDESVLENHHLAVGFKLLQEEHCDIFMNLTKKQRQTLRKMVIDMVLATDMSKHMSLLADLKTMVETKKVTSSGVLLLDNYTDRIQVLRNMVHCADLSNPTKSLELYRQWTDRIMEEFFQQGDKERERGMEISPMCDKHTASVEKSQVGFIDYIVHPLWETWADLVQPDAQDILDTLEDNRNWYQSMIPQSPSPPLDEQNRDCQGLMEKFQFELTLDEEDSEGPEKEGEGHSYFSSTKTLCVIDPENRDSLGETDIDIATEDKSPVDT
T3 sequence (Q14432 whole entry): as the sequence (Q14432 whole entry) above

| IC50 [1] [nM] | IC50 [2] [nM] | IC50 [3] [nM] | PDE4 [−log IC50, mol/l] [4] [mol/l] | Compound |
| --- | --- | --- | --- | --- |
| 0.316 | 39.8 | – | – | CCOc1cc2c(cc1OC)C(c1ccc(C(=O)N(C(C)C)[C@@H](C)COCc3ccc(OC)cc3)cc1)=N[C@@H]1CCN(C)C[C@H]21 [Compound 20, 4-((4aR,10bS)-9-Ethoxy-8-methoxy-2-methyl-1,2,3,4,4a,10b-hexahydro-benzo [c][1,6]naphthyridin-6-yl)-N-isopropyl-N—[(S)-2-(4-methoxy-benzyloxy)-1-methyl-ethyl]-benzamide] |
| 0.398 | 25.1 | – | – | CCOc1cc2c(cc1OC)C(c1ccc(C(=O)N(C(C)C)[C@@H](C)COCc3ccc(C#N)cc3)cc1)=N[C@@H]1CCN(C)C[C@H]21 [Compound 19, N—[(S)-2-(4-Cyano-benzyloxy)-1-methyl-ethyl]-4-((4aR,10bS)-9-ethoxy-8-methoxy-2-methyl-1,2,3,4,4a,10b-hexahydro-benzo[c][1,6]naphthyridin-6-yl)-N-isopropyl-benzamide] |
| 2 | 39.8 | – | – | CCOc1cc2c(cc1OC)C(c1ccc(C(=O)N(C(C)C)[C@@H](C)COCCCc3ccccc3)cc1)=N[C@@H]1CCN(C)C[C@H]21 [Compound 21, 4-((4aR,10bS)-9-Ethoxy-8-methoxy-2-methyl-1,2,3,4,4a,10b-hexahydro-benzo [c][1,6]naphthyridin-6-yl)-N-isopropyl-N—[(S)-1-methyl-2-(3-phenyl-propoxy)-ethyl]-benzamide] |

Further lines, the compound ahead of its results:

| Compound | IC50 [1] [nM] | IC50 [2] [nM] | IC50 [3] [nM] | PDE4 [−log IC50, mol/l] [4] [mol/l] |
| --- | --- | --- | --- | --- |
| CCOc1cc2c(cc1OC)C(c1ccc(C(=O)N(C(C)C)[C@@H](C)COCc3ccc(C(F)(F)F)cc3)cc1)=N[C@@H]1CCN(C)C[C@H]21 [Compound 18, 4-((4aR,10bS)-9-Ethoxy-8-methoxy-2-methyl-1,2,3,4,4a,10b-hexahydro-benzo [c][1,6]naphthyridin-6-yl)-N-isopropyl-N—[(S)-1-methyl-2-(4-trifluoromethyl-benzyloxy)-ethyl]-benzamide] | 1 | 79.4 | – | – |
| CCOc1cc2c(cc1OC)C(c1ccc(C(=O)N(C(C)C)[C@@H](C)COCc3cc(OC)cc(OC)c3)cc1)=N[C@@H]1CCN(C)C[C@H]21 [Compound 17, N—[(S)-2-(3,5-Dimethoxy-benzyloxy)-1-methyl-ethyl]-4-((4aR,10bS)-9-ethoxy-8-methoxy-2-methyl-1,2,3,4,4a,10b-hexahydro-benzo[c][1,6]naphthyridin-6-yl)-N-isopropyl-benzamide] | 0.316 | 39.8 | – | – |
| CCOc1cc2c(cc1OC)C(c1ccc(C(=O)N(CCOC)C3CCCCC3)cc1)=N[C@@H]1CCN(C)C[C@H]21.Cl [Compound 12, N-Cyclohexyl-4-((4aR,10bS)-9-ethoxy-8-methoxy-2-methyl-1,2,3,4,4a,10b-hexahydro-benzo [c][1,6]naphthyridin-6-yl)-N-(2-methoxy-ethyl)-benzamide; hydrochloride] | – | – | 158 | 9.4 |
